# Test results as given in patent publication US20090093476A1, “PYRROLO[1,2-A]QUINOXALINE DERIVATIVES AS ADENOSINE A3 RECEPTOR MODULATORS AND USES THEREOF” (FAUST PHARMACEUTICALS, priority 2005, published 2009).
# pIC50: −log10 of the molar value.
# Experiments:
# Type in all cases: cell-based
# [1] = system: HL-60; test: Cytotoxic activity, MTS assay, HL-60; conditions: Homo sapiens, HL-60, 96 hours
# Method: (§1) This study aims to determine the cytotoxic activity of a compound of the invention against a panel of ten human cancer cell lines.
# (§2) Paclitaxel (Taxol®, ref. T1912, Sigma) is used as positive control.
# (§3) Human tumor cells were plated at 5,000 to 10,000 cells per well, with 24 h incubation time before treatment. Tumor cell lines were incubated for 96 hours with 10 concentrations, in ¼ dilution steps, of compound of the invention (from 3.8×10^−10 to 1.0×10^−4 M) and Paclitaxel (from 3.8×10^−13 to 1.0×10^−7 M). Experiments were repeated three times, each concentration being issued from quadruplicate. Control cells were treated with corresponding vehicle alone. At the end of the treatments, the cytotoxic activity was evaluated by a MTS assay (Baltrop J A et al, Bioorg. Med. Chem. Lett. 1991, 611-4).
# [2] = system: K-562; test: Cytotoxic activity, MTS assay, K-562; conditions: Homo sapiens, K562, K-562, 96 hours
# Method: as §1, §2, §3
# [3] = system: HCT 116; test: Cytotoxic activity, MTS assay, HCT 116; conditions: Homo sapiens, HCT 116, 96 hours
# Method: as §1, §2, §3
# [4] = system: A375; test: Cytotoxic activity, MTS assay, A375; conditions: Homo sapiens, A-375, A375, 96 hours
# Method: as §1, §2, §3
# [5] = system: U-87 MG; test: Cytotoxic activity, MTS assay, U-87 MG; conditions: Homo sapiens, 96 hours
# Method: as §1, §2, §3
# [6] = system: A2780; test: Cytotoxic activity, MTS assay, A2780; conditions: Homo sapiens, A2780, 96 hours
# Method: as §1, §2, §3
# [7] = system: PANC-1; test: Cytotoxic activity, MTS assay, PANC-1; conditions: Homo sapiens, PANC-1, 96 hours
# Method: as §1, §2, §3
# [8] = system: HT-29; test: Cytotoxic activity, MTS assay, HT-29; conditions: Homo sapiens, HT-29, 96 hours
# Method: as §1, §2, §3
# [9] = system: U-937; test: Cytotoxic activity, MTS assay, U-937; conditions: Homo sapiens, U-937, 96 hours
# Method: as §1, §2, §3
# [10] = system: PC-3; test: Cytotoxic activity, MTS assay, PC-3; conditions: Homo sapiens, PC-3, 96 hours
# Method: as §1, §2, §3
structure (smiles),measurement,setting,value
CC(=O)O[C@H]1C(=O)[C@@]2(C)[C@H]([C@H](OC(=O)c3ccccc3)[C@]3(O)C[C@H](OC(=O)[C@H](O)[C@@H](NC(=O)c4ccccc4)c4ccccc4)C(C)=C1C3(C)C)[C@]1(OC(C)=O)CO[C@@H]1C[C@@H]2O [Paclitaxel],pIC50,[1],8.18
same,pIC50,[2],8.12
same,pIC50,[3],8.25
same,pIC50,[4],8.19
same,pIC50,[5],< 7.00
same,pIC50,[6],7.11
same,pIC50,[7],< 7.00
same,pIC50,[8],8.08
same,pIC50,[9],8.28
same,pIC50,[10],8.06
